Experiments:
[1] = tested on: normal lung fibroblasts (MRC-5); assay: Antiproliferative assay (MTT reduction), MRC-5; type: cell-based, human; parameters: key to Antiproliferative activity in words, MRC-5: IC50 values > 100 µM were considered inactive; details: for IC50: Homo sapiens, MRC5, 72 h, MRC-5 normal lung fibroblasts, 3 days treatment, MTT, read-out: IC50 ± SD, MRC-5
Experimental: (§1) All human cell lines used in this work were purchased from the American Type Culture Collection (ATCC, Manasas, VA, USA). […] Promyelocytic leukemia HL-60 cells (CCL-240) were grown in suspension in RPM1 medium containing 1 mM sodium pyruvate and 2.0 g/L sodium bicarbonate. All media were supplemented with 10% heat-inactivated FBS, 100 IU/mL penicillin and 100 µg/mL streptomycin. […] For the antiproliferative assay, adherent cells were plated at a density of 5 × 10^4 cells/mL and HL-60 cells at 30 × 10^4 cells/mL. Cells were seeded in 96-well plates (100 µL/well). One day after seeding, cells were treated with medium containing the compounds at concentrations ranging from 0 up to 100 µM during 3 days. The compounds were dissolved in DMSO (1% final concentration) and complete medium. Untreated cells (medium containing 1% DMSO) were used as 100% viability controls. […] Each concentration was tested in sextuplicate and experiments were repeated 2 times. Cell viability was determined by means of the MTT reduction assay at the end of the incubation with the products.

[2] = tested on: promyelocytic leukemia (HL-60) cells; assay: Antiproliferative assay (MTT reduction), HL-60; type: cell-based; details: Homo sapiens, 72 h, HL-60 promyelocytic leukemia cells, 3 days treatment, read-out: IC50 ± SD, HL-60
Experimental: as §1

[3] = tested on: bladder carcinoma (J82) cells; assay: Antiproliferative assay (MTT reduction), J82; type: cell-based; details: Homo sapiens, 72 h, 3 days treatment, read-out: IC50 ± SD, J82
Experimental: (§2) All human cell lines used in this work were purchased from the American Type Culture Collection (ATCC, Manasas, VA, USA). Normal lung MRC-5 fibroblasts (CCL-171), SK-MES-1 lung cancer cells (HTB-58) and J82 bladder carcinoma cells (HTB-1) were grown as monolayers in minimum essential Eagle medium (MEM) with Earles’s salts, 2 mM L-glutamine and 1.5 g/L sodium bicarbonate. Gastric adenocarcinoma AGS cells (CRL-1739) were grown as monolayers in Ham F-12 medium containing 1 mM L-glutamine and 1.5 g/L sodium bicarbonate. Promyelocytic leukemia HL-60 cells (CCL-240) were grown in suspension in RPM1 medium containing 1 mM sodium pyruvate and 2.0 g/L sodium bicarbonate. All media were supplemented with 10% heat-inactivated FBS, 100 IU/mL penicillin and 100 µg/mL streptomycin. Cells were grown in a humidified incubator with 5% CO2 in air at 37 °C. For the antiproliferative assay, adherent cells were plated at a density of 5 × 10^4 cells/mL and HL-60 cells at 30 × 10^4 cells/mL. Cells were seeded in 96-well plates (100 µL/well). One day after seeding, cells were treated with medium containing the compounds at concentrations ranging from 0 up to 100 µM during 3 days. The compounds were dissolved in DMSO (1% final concentration) and complete medium. Untreated cells (medium containing 1% DMSO) were used as 100% viability controls. […] Each concentration was tested in sextuplicate and experiments were repeated 2 times. Cell viability was determined by means of the MTT reduction assay at the end of the incubation with the products. The results were transformed to percentage of controls and the IC50 values were graphically obtained from the dose-response curves.

[4] = tested on: lung cancer (SK-MES-1) cells; assay: Antiproliferative assay (MTT reduction), SK-MES-1; type: cell-based; details: Homo sapiens, 72 h, SK-MES-1 lung cancer cells, 3 days treatment, read-out: IC50 ± SD, SK-MES-1
Experimental: as §1

[5] = tested on: gastric epithelial adenocarcinoma (AGS) cells; assay: Antiproliferative assay (MTT reduction), AGS; type: cell-based; details: Homo sapiens, 72 h, 3 days treatment, read-out: IC50 ± SD, AGS
Experimental: as §2

[6] = tested on: MRC-5, AGS, HL-60, SK-MES-1 and J82 cells; assay: Antiproliferative assay (MTT reduction), all cell lines together; type: cell-based, human; parameters: key to Antiproliferative activity in words, all cell lines: IC50 values > 100 µM were considered inactive; details: SK-MES-1, J82 and HL-60; for IC50: Homo sapiens, range over MRC-5, AGS; for Antiproliferative activity in words, all cell lines: MRC-5, AGS, up to 100 µM
Experimental: as §2

Row | SMILES | IC50 [1] | melting point | IC50 [2] | IC50 [3] | IC50 [4] | IC50 [5] | IC50 [6] | Antiproliferative activity in words, MRC-5 ([1]; MRC-5 cells, up to 100 µM) | Antiproliferative activity in words, all cell lines [6]
1 | CC1(C)CC[C@]2(C(=O)O)CC[C@]3(C)C(=CCC4[C@@]5(C)CC[C@H](OC(=O)CCc6cn(Cc7ccc(Cl)cc7)nn6)C(C)(C)C5CC[C@]43C)[C@@H]2C1 (stereo partly drawn) [Compound 9] | > 100 µM | 184 °C | 35.8 ± 4.1 µM | 35.4 ± 2.8 µM | 50.4 ± 3.5 µM | 8.9 ± 0.4 µM | – | – | –
2 | COC(=O)[C@]12CCC(C)(C)C[C@H]1C1=CCC3[C@@]4(C)CC[C@H](OC(=O)CCc5cn(-c6ccccc6)nn5)C(C)(C)C4CC[C@@]3(C)[C@]1(C)CC2 (stereo partly drawn) [Compound 6] | > 100 µM | – | > 100 µM | > 100 µM | > 100 µM | > 100 µM | – | – | –
3 | Cc1ccc(S(=O)(=O)n2cc(CCCC(=O)O[C@H]3CC[C@@]4(C)C(CC[C@]5(C)C4CC=C4[C@@H]6CC(C)(C)CC[C@]6(C(=O)O)CC[C@]45C)C3(C)C)nn2)cc1 (stereo partly drawn) [Compound 15] | 17.1 ± 1 µM | 186 °C | 11.5 ± 1 µM | 14.3 ± 0.6 µM | 11.9 ± 0.6 µM | 22.2 ± 1.6 µM | 11.5 to 22.2 µM | – | –
4 | COc1ccc(-n2cc(CCC(=O)O[C@H]3CC[C@@]4(C)C(CC[C@]5(C)C4CC=C4[C@@H]6CC(C)(C)CC[C@]6(C(=O)O)CC[C@]45C)C3(C)C)nn2)cc1 (stereo partly drawn) [Compound 7] | > 100 µM | 210 °C | > 100 µM | > 100 µM | > 100 µM | 95.1 ± 5.8 µM | – | – | –
5 | COC(=O)[C@]12CCC(C)(C)C[C@H]1C1=CCC3[C@@]4(C)CC[C@H](OC(=O)CCc5cn(CSc6ccccc6)nn5)C(C)(C)C4CC[C@@]3(C)[C@]1(C)CC2 (stereo partly drawn) [Compound 14] | > 100 µM | 195 °C | > 100 µM | > 100 µM | > 100 µM | > 100 µM | – | – | –
6 | CC1(C)CC[C@]2(C(=O)O)CC[C@]3(C)C(=CCC4[C@@]5(C)CC[C@H](OC(=O)CCCc6cn(CSc7ccccc7)nn6)C(C)(C)C5CC[C@]43C)[C@@H]2C1 (stereo partly drawn) [Compound 17] | 46.7 ± 2.4 µM | 198 °C | 11.8 ± 0.9 µM | > 100 µM | 61.8 ± 3.1 µM | 23.7 ± 1.4 µM | – | – | –
7 | C#CCCCC(=O)O[C@H]1CC[C@@]2(C)C(CC[C@]3(C)C2CC=C2[C@@H]4CC(C)(C)CC[C@]4(C(=O)O)CC[C@]23C)C1(C)C (stereo partly drawn) [Compound 3] | 14.1 ± 1.2 µM | 212 °C | 22.4 ± 0.1 µM | 56.2 ± 4.3 µM | 23.4 ± 1.8 µM | 22.1 ± 1.5 µM | 14.1 to 56.2 µM | – | –
8 | C#CCCC(=O)O[C@H]1CC[C@@]2(C)C(CC[C@]3(C)C2CC=C2[C@@H]4CC(C)(C)CC[C@]4(C(=O)O)CC[C@]23C)C1(C)C (stereo partly drawn) [Compound 1] | 21.3 ± 0.9 µM | 235 °C | 19.6 ± 0.1 µM | 23.1 ± 1.6 µM | 22.4 ± 1.9 µM | 19.1 ± 1 µM | 19.6 to 23.1 µM | – | –
9 | COC(=O)[C@]12CCC(C)(C)C[C@H]1C1=CCC3[C@@]4(C)CC[C@H](OC(=O)CCCc5cn(CSc6ccccc6)nn5)C(C)(C)C4CC[C@@]3(C)[C@]1(C)CC2 (stereo partly drawn) [Compound 18] | > 100 µM | – | > 100 µM | > 100 µM | > 100 µM | > 100 µM | – | – | –
10 | CC1(C)CC[C@]2(C(=O)O)CC[C@]3(C)C(=CCC4[C@@]5(C)CC[C@H](OC(=O)CCc6cn(CSc7ccccc7)nn6)C(C)(C)C5CC[C@]43C)[C@@H]2C1 (stereo partly drawn) [Compound 13] | > 100 µM | 170 °C | 18.1 ± 1.6 µM | > 100 µM | 65.5 ± 4.4 µM | 31.6 ± 1.6 µM | – | inactive | –
11 | C#CCCCC(=O)O[C@H]1CC[C@@]2(C)C(CC[C@]3(C)C2CC=C2[C@@H]4CC(C)(C)CC[C@]4(C(=O)OC)CC[C@]23C)C1(C)C (stereo partly drawn) [Compound 4] | > 100 µM | 176 °C | > 100 µM | > 100 µM | > 100 µM | > 100 µM | – | – | inactive
12 | COC(=O)[C@]12CCC(C)(C)C[C@H]1C1=CCC3[C@@]4(C)CC[C@H](OC(=O)CCCc5cn(S(=O)(=O)c6ccc(C)cc6)nn5)C(C)(C)C4CC[C@@]3(C)[C@]1(C)CC2 (stereo partly drawn) [Compound 16] | > 100 µM | – | 84.2 ± 7.5 µM | > 100 µM | > 100 µM | > 100 µM | – | – | –
13 | C#CCCC(=O)O[C@H]1CC[C@@]2(C)C(CC[C@]3(C)C2CC=C2[C@@H]4CC(C)(C)CC[C@]4(C(=O)OC)CC[C@]23C)C1(C)C (stereo partly drawn) [Compound 2] | > 100 µM | 173 °C | > 100 µM | > 100 µM | > 100 µM | > 100 µM | – | – | inactive
14 | COC(=O)[C@]12CCC(C)(C)C[C@H]1C1=CCC3[C@@]4(C)CC[C@H](OC(=O)CCc5cn(-c6ccc(OC)cc6)nn5)C(C)(C)C4CC[C@@]3(C)[C@]1(C)CC2 (stereo partly drawn) [Compound 8] | > 100 µM | – | > 100 µM | > 100 µM | > 100 µM | > 100 µM | – | – | –
15 | CC1(C)CC[C@]2(C(=O)O)CC[C@]3(C)C(=CCC4[C@@]5(C)CC[C@H](OC(=O)CCc6cn(-c7ccccc7)nn6)C(C)(C)C5CC[C@]43C)[C@@H]2C1 (stereo partly drawn) [Compound 5] | > 100 µM | – | > 100 µM | > 100 µM | > 100 µM | > 100 µM | – | – | –
16 | COC(=O)[C@]12CCC(C)(C)C[C@H]1C1=CCC3[C@@]4(C)CC[C@H](OC(=O)CCc5cn(Cc6ccc(Cl)cc6)nn5)C(C)(C)C4CC[C@@]3(C)[C@]1(C)CC2 (stereo partly drawn) [Compound 10] | > 100 µM | – | > 100 µM | > 100 µM | > 100 µM | > 100 µM | – | – | activity was lost
17 | Cc1ccc(S(=O)(=O)n2cc(CCC(=O)O[C@H]3CC[C@@]4(C)C(CC[C@]5(C)C4CC=C4[C@@H]6CC(C)(C)CC[C@]6(C(=O)O)CC[C@]45C)C3(C)C)nn2)cc1 (stereo partly drawn) [Compound 11] | 14.1 ± 0.8 µM | 163 °C | 15.9 ± 1.5 µM | 47.1 ± 2.9 µM | 21.4 ± 1.3 µM | 10.8 ± 0.6 µM | 10.8 to 47.1 µM | – | –
18 | COC(=O)[C@]12CCC(C)(C)C[C@H]1C1=CCC3[C@@]4(C)CC[C@H](OC(=O)CCc5cn(S(=O)(=O)c6ccc(C)cc6)nn5)C(C)(C)C4CC[C@@]3(C)[C@]1(C)CC2 (stereo partly drawn) [Compound 12] | 76 ± 3.8 µM | – | 22.4 ± 1.8 µM | > 100 µM | 76.3 ± 5.1 µM | 63 ± 3.8 µM | – | – | –
19 | COc1cc([C@@H]2c3cc4c(cc3[C@@H](O[C@@H]3O[C@@H]5CO[C@@H](C)O[C@H]5[C@H](O)[C@H]3O)[C@H]3COC(=O)[C@H]23)OCO4)cc(OC)c1O [Etoposide, reference compound] | – | – | – | 3.49 ± 0.16 µM | – | 0.58 ± 0.02 µM | – | – | –
